# Test results reported in patent publication US6737383B1, “Herbicidal oxadiazolidines” (priority 1999, dated 2004).
# Experiments:
# [1] = system: windgrass; test: Test E windgrass; type: in vivo, Apera spica-venti; conditions: Preemergence
# [2] = system: winter barley; test: Test E winter barley; type: in vivo, Hordeum vulgare; conditions: Postemergence
# Outline: (§1)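 Greenhouse test: compounds in non-phytotoxic solvent with surfactant; for postemergence, sprayed on plants at 1- to 4-leaf stage grown in 60:40 sandy loam/potting mix. Injury rated visually against untreated controls after about 21 to 28 days.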
# [3] = system: kochia; test: Test E kochia; type: in vivo, Kochia scoparia; conditions: Postemergence
# Protocol: (§2) Compounds evaluated in this test were formulated in a non-phytotoxic solvent mixture which included a surfactant and applied to plants that were in the 1- to 4-leaf stage (postemergence application). A mixture of sandy loam soil and greenhouse potting mix in a 60:40 ratio was used for the postemergence test.
# (§3) Plantings of these crops and weed species were adjusted to produce plants of appropriate size for the postemergence test. All plant species were grown using normal greenhouse practices. Crop and weed species include annual bluegrass (Poa annua), blackgrass (Alopecurus myosuroides), black nightshade (Solanum nigra), chickweed (Stellaria media), common poppy (Papaver rhoeas), deadnettle (Lamium amplexicaule), downy brome (Bromus tectorum), field violet (Viola arvensis), galium (Galium aparine), green foxtail (Setaria viridis), Italian ryegrass (Lolium multiflorum), jointed goatgrass (Aegilops cylindrica), kochia (Kochia scoparia), lambsquarters (Chenopodium album), littleseed canarygrass (Phalaris minor), rape (Brassica napus), redroot pigweed (Amaranthus retroflexus), Russian thistle (Salsola kali), scentless chamomile (Matricaria inodora), spring barley (Hordeum vulgare), sugar beet (Beta vulgaris), sunflower (Helianthus annuus), ivyleaf speedwell (Veronica hederaefolia), spring wheat (Triticum aestivum), winter wheat (Triticum aestivum), wild buckwheat (Polygonum convolvulus), wild mustard (Sinapis arvensis), wild oat (Avena fatua), windgrass (Apera spica-venti) and winter barley (Hordeum vulgare).
# (§4) Treated plants and untreated controls were maintained in a greenhouse for approximately 21 to 28 days, after which all treated plants were compared to untreated controls and visually evaluated. […] A dash response (-) means no test result.
# [4] = system: spring barley; test: Test E spring barley; type: in vivo, Hordeum vulgare; conditions: Preemergence
# [5] = system: galium; test: Test E galium; type: in vivo, Galium aparine; conditions: Postemergence
# Outline: as §1
# [6] = system: redroot pigweed; test: Test E redroot pigweed; type: in vivo, Amaranthus retroflexus; conditions: Postemergence
# Protocol: as §2, §3, §4
# [7] = system: deadnettle; test: Test E deadnettle; type: in vivo, Lamium amplexicaule; conditions: Preemergence
# [8] = system: jointed goatgrass; test: Test E jointed goatgrass; type: in vivo, Aegilops cylindrica; conditions: Preemergence
# [9] = system: common ragweed; test: Test C postemergence common ragweed; type: in vivo, Ambrosia elatior; conditions: 0 to 100 scale, 0 no effect, 100 complete control
# Protocol: as §2, with “grown for various periods of time before treatment” for “in the 1- to 4-leaf stage”
# (§5) Plantings of these crops and weed species were adjusted to produce plants of appropriate size for the postemergence test. All plant species were grown using normal greenhouse practices. Crop and weed species include arrowleaf sida (Sida rhombifolia), barnyardgrass (Echinochloa crus-galli), cocklebur (Xanthium strumarium), common ragweed (Ambrosia elatior), corn (Zea mays), cotton (Gossypium hirsutum), eastern black nightshade (Solanum ptycanthum), fall panicum (Panicum dichotomiflorum), field bindweed (Convolvulus arvensis), giant foxtail (Setaria faberii), hairy beggarticks (Bidens pilosa), ivyleaf morningglory (Ipomoea hederacea), johnsongrass (Sorghum halepense), ladysthumb smartweed (Polygonum persicaria), lambsquarters (Chenopodium album), large crabgrass (Digitaria sanguinalis), purple nutsedge (Cyperus rotundus), redroot pigweed (Amaranthus retroflexus), soybean (Glycine max), surinam grass (Brachiaria decumbens), velvetleaf (Abutilon theophrasti) and wild poinsettia (Euphorbia heterophylla).
# (§6) Treated plants and untreated controls were maintained in a greenhouse for approximately 14, to 21 days, after which all treated plants were compared to untreated controls and visually evaluated. Plant response ratings, summarized in Table C, were based upon a 0 to 100 scale where 0 was no effect and 100 was complete control. A dash response (−) means no test result.
# [10] = system: ivyleaf morningglory; test: Test C postemergence ivyleaf morningglory; type: in vivo, Ipomoea hederacea; conditions: 0 to 100 scale, 0 no effect, 100 complete control
# Protocol: as §2, with “grown for various periods of time before treatment” for “in the 1- to 4-leaf stage”
# as §5, §6
# [11] = system: hairy beggarticks; test: Test C postemergence hairy beggarticks; type: in vivo, Bidens pilosa; conditions: 0 to 100 scale, 0 no effect, 100 complete control
# Protocol: as §2, with “grown for various periods of time before treatment” for “in the 1- to 4-leaf stage”
# as §5, §6
# [12] = system: velvetleaf; test: Test C postemergence velvetleaf; type: in vivo, Abutilon theophrasti; conditions: 0 to 100 scale, 0 no effect, 100 complete control
# Protocol: as §2, with “grown for various periods of time before treatment” for “in the 1- to 4-leaf stage”
# as §5, §6
# [13] = system: johnsongrass; test: Test C postemergence johnsongrass; type: in vivo, Sorghum halepense; conditions: 0 to 100 scale, 0 no effect, 100 complete control
# Protocol: as §2, with “grown for various periods of time before treatment” for “in the 1- to 4-leaf stage”
# as §5, §6
# [14] = system: cotton; test: Test C postemergence cotton; type: in vivo, Gossypium hirsutum; conditions: 0 to 100 scale, 0 no effect, 100 complete control
# Outline: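 Greenhouse postemergence test: compound applied in solvent/surfactant formulation to established plants; visual scoring 0–100 against untreated controls after roughly two to three weeks (14–21 days).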
# [15] = system: giant foxtail; test: Test C postemergence giant foxtail; type: in vivo, Setaria faberii; conditions: 0 to 100 scale, 0 no effect, 100 complete control
# Protocol: as §2, with “grown for various periods of time before treatment” for “in the 1- to 4-leaf stage”
# as §5, §6
# [16] = Rate 125 g/ha, 0 to 100 scale (0 no effect, 100 complete control)
# [17] = Rate 500 g/ha, 0 to 100 scale where 0 is no effect and 100 is complete control
# [18] = Rate 250 g/ha, 0 to 100 scale (0 no effect, 100 complete control)
# [19] = Rate 500 g/ha, 0 to 100 scale, 0 no effect, 100 complete control
# [20] = Rate 250 g/ha, 0 to 100 scale where 0 is no effect and 100 is complete control
smiles,measurement,setting,value
CC(C)N(C(=O)n1oc(=O)n(C(C)C)c1=O)c1ccc(Cl)cc1 [Compound 114],"Plant response rating, Windgrass",[1]; [16],100
same,"Plant response rating, Windgrass",[1]; [17],100
same,"Plant response rating, Barley (winter)","[2]; Rate 125 g/ha, 0 to 100 scale",5
same,"Plant response rating, Barley (winter)",[2]; [18],10
same,"Plant response rating, Barley (winter)",[2]; [19],20
same,"Plant response rating, Kochia","[3]; Rate 125 g/ha, 0 to 100 scale",20
same,"Plant response rating, Kochia",[3]; [18],30
same,"Plant response rating, Kochia",[3]; [19],30
same,"Plant response rating, Spring Barley",[4]; [16],0
same,"Plant response rating, Spring Barley","[4]; Rate 250 g/ha, 0 to 100 scale",0
same,"Plant response rating, Spring Barley",[4]; [17],20
same,"Plant response rating, Galium","[5]; Rate 125 g/ha, 0 to 100 scale",10
same,"Plant response rating, Galium",[5]; [18],50
same,"Plant response rating, Galium",[5]; [19],85
same,"Plant response rating, Redroot pigweed","[6]; Rate 125 g/ha, 0 to 100 scale",15
same,"Plant response rating, Redroot pigweed",[6]; [18],10
same,"Plant response rating, Redroot pigweed",[6]; [19],20
same,"Plant response rating, Deadnettle",[7]; [16],20
same,"Plant response rating, Deadnettle","[7]; Rate 250 g/ha, 0 to 100 scale",20
same,"Plant response rating, Deadnettle",[7]; [17],20
same,"Plant response rating, Jointed goatgra",[8]; [16],20
same,"Plant response rating, Jointed goatgra","[8]; Rate 250 g/ha, 0 to 100 scale",65
same,"Plant response rating, Jointed goatgra",[8]; [17],50
CCn1c(=O)on(C(=O)N(c2ccccc2)C(C)C)c1=O [Compound 117],Plant response rating Common ragweed,[9]; Rate 140 g/ha,0
same,Plant response rating Common ragweed,[9]; Rate 280 g/ha,0
same,Plant response rating Common ragweed,[9]; Rate 560 g/ha,20
same,Plant response rating Common ragweed,[9]; Rate 1120 g/ha,50
same,Plant response rating I. morningglory,[10]; Rate 140 g/ha,0
same,Plant response rating I. morningglory,[10]; Rate 280 g/ha,0
same,Plant response rating I. morningglory,[10]; Rate 560 g/ha,0
same,Plant response rating I. morningglory,[10]; Rate 1120 g/ha,0
same,Plant response rating H. beggarticks,[11]; Rate 1120 g/ha,0
same,"Plant response rating, Velvetleaf",[12]; Rate 140 g/ha,0
same,"Plant response rating, Velvetleaf",[12]; Rate 560 g/ha,20
same,"Plant response rating, Velvetleaf",[12]; Rate 1120 g/ha,60
same,Plant response rating Johnsongrass,[13]; Rate 140 g/ha,10
same,Plant response rating Johnsongrass,[13]; Rate 280 g/ha,35
same,Plant response rating Johnsongrass,[13]; Rate 560 g/ha,40
same,Plant response rating Johnsongrass,[13]; Rate 1120 g/ha,85
same,Plant response rating Cotton,[14]; Rate 140 g/ha,5
same,Plant response rating Cotton,[14]; Rate 280 g/ha,10
same,Plant response rating Cotton,[14]; Rate 560 g/ha,30
same,Plant response rating Cotton,[14]; Rate 1120 g/ha,60
same,"Plant response rating, Giant foxtail",[15]; Rate 140 g/ha,0
same,"Plant response rating, Giant foxtail",[15]; Rate 280 g/ha,60
same,"Plant response rating, Giant foxtail",[15]; Rate 560 g/ha,75
same,"Plant response rating, Giant foxtail",[15]; Rate 1120 g/ha,80
CC(C)N(C(=O)n1oc(=O)n(C(C)C)c1=O)c1ccc(F)cc1 [Compound 131],Plant response rating Common ragweed,[9]; Rate 140 g/ha,0
same,Plant response rating Common ragweed,[9]; Rate 280 g/ha,0
same,Plant response rating Common ragweed,[9]; Rate 560 g/ha,0
same,Plant response rating Common ragweed,[9]; Rate 1120 g/ha,0
same,"Plant response rating, Windgrass",[1]; [16],100
same,Windgrass plant response rating (0 to 100 scale),[1]; Rate 250 g/ha,100
same,"Plant response rating, Windgrass",[1]; [17],100
same,Plant response rating I. morningglory,[10]; Rate 140 g/ha,0
same,Plant response rating I. morningglory,[10]; Rate 280 g/ha,0
same,Plant response rating I. morningglory,[10]; Rate 560 g/ha,20
same,Plant response rating I. morningglory,[10]; Rate 1120 g/ha,50
same,"Plant response rating, Barley (winter)","[2]; Rate 62 g/ha, 0 to 100 scale",5
same,"Plant response rating, Barley (winter)","[2]; Rate 125 g/ha, 0 to 100 scale",0
same,"Plant response rating, Barley (winter)",[2]; [19],20
same,Barley (winter) plant response rating,[2]; [20],0
same,Plant response rating H. beggarticks,[11]; Rate 140 g/ha,0
same,Plant response rating H. beggarticks,[11]; Rate 560 g/ha,40
same,Plant response rating H. beggarticks,[11]; Rate 1120 g/ha,70
same,"Plant response rating, Kochia","[3]; Rate 62 g/ha, 0 to 100 scale",45
same,"Plant response rating, Kochia","[3]; Rate 125 g/ha, 0 to 100 scale",0
same,"Plant response rating, Kochia",[3]; [19],0
same,Kochia plant response rating,[3]; [20],0
same,"Plant response rating, Spring Barley",[4]; [16],20
same,Spring Barley plant response rating (0 to 100 scale),[4]; Rate 250 g/ha,70
same,"Plant response rating, Spring Barley",[4]; [17],85
same,"Plant response rating, Galium","[5]; Rate 62 g/ha, 0 to 100 scale",50
same,"Plant response rating, Galium","[5]; Rate 125 g/ha, 0 to 100 scale",10
same,"Plant response rating, Galium",[5]; [19],50
same,Galium plant response rating,[5]; [20],0
same,"Plant response rating, Velvetleaf",[12]; Rate 140 g/ha,0
same,"Plant response rating, Velvetleaf",[12]; Rate 280 g/ha,0
same,"Plant response rating, Velvetleaf",[12]; Rate 560 g/ha,10
same,"Plant response rating, Velvetleaf",[12]; Rate 1120 g/ha,70
same,Plant response rating Johnsongrass,[13]; Rate 140 g/ha,15
same,Plant response rating Johnsongrass,[13]; Rate 280 g/ha,40
same,Plant response rating Johnsongrass,[13]; Rate 560 g/ha,60
same,Plant response rating Johnsongrass,[13]; Rate 1120 g/ha,70
same,"Plant response rating, Redroot pigweed","[6]; Rate 62 g/ha, 0 to 100 scale",5
same,"Plant response rating, Redroot pigweed","[6]; Rate 125 g/ha, 0 to 100 scale",0
same,"Plant response rating, Redroot pigweed",[6]; [19],0
same,Redroot pigweed plant response rating,[6]; [20],0
same,"Plant response rating, Deadnettle",[7]; [16],30
same,Deadnettle plant response rating (0 to 100 scale),[7]; Rate 250 g/ha,60
same,"Plant response rating, Deadnettle",[7]; [17],100
same,Plant response rating Cotton,[14]; Rate 140 g/ha,10
same,Plant response rating Cotton,[14]; Rate 280 g/ha,10
same,Plant response rating Cotton,[14]; Rate 560 g/ha,40
same,Plant response rating Cotton,[14]; Rate 1120 g/ha,65
same,"Plant response rating, Giant foxtail",[15]; Rate 140 g/ha,10
same,"Plant response rating, Giant foxtail",[15]; Rate 280 g/ha,40
same,"Plant response rating, Giant foxtail",[15]; Rate 560 g/ha,60
same,"Plant response rating, Giant foxtail",[15]; Rate 1120 g/ha,80
same,"Plant response rating, Jointed goatgra",[8]; [16],50
same,Jointed goatgra plant response rating (0 to 100 scale),[8]; Rate 250 g/ha,70
same,"Plant response rating, Jointed goatgra",[8]; [17],95
